Read-outs that look alike come from different tables or passages of the source.
Assay: Plasma kinetic study of colchicine with and without Schisandrin A
Format: in vivo
Conditions: male, Sprague Dawley, rat, po, 3 mg/kg; for AUC(0-t): read-out: AUC0→t of colchicine; for AUC(0-inf): read-out: AUC0→∞ of colchicine; for MRT last: read-out: MRT0→t of colchicine; for MRT inf: read-out: MRT0→∞ of colchicine; for half-life: read-out: T1/2 of colchicine (converted)
Method: 42 Male Sprague Dawley rats (weight, 170-210 g) were maintained on a 12-h light/dark cycle with free access to water and lab chow for 10-14 h prior to the experiment. Rats were randomly divided into 7 groups (n=6 each) and groups 2-7 received 0 mg/kg, 6.3 mg/kg, and 12.6 mg/kg, 25.2 mg/kg, 50.4 mg/kg and 63.0 mg/kg of Schisandrin A in 1% CMC-Na (300-800 cps) via oral administration, respectively. After 5 minutes, all the groups received 3.0 mg/kg of colchicine in a solution of 2% DMSO-98% sterile water via oral administration.
After colchicine treatment, blood samples were collected from individual rat at 5 min, 15 min, 0.5 h, 1 h, 2 h, 4 h, 6 h, 8 h, 10 h, 24 h respectively. Plasma was separated by centrifugation at 8000 rpm for 6 minutes at 4° C. and kept at −80° C. until analysis. Plasma homogenate was injected into LC-MS/MS for analysis. Pharmacokinetic parameters of colchicine after a single oral dose of colchicine (3.0 mg/kg) in rats with and without different dose of Schisandrin A, including area under the concentration-time curve (AUC), mean residence time (MRT) and terminal elimination half-life (T1/2), Cmax, and Tmax are shown in Table 5.

[1] = Group1, rats, colchicine 3.0 mg/kg oral, no Schisandrin A dose stated
[2] = Group2, rats, Schisandrin A 0 mg/kg oral 5 min before colchicine 3.0 mg/kg oral
[3] = Group3, rats, Schisandrin A 6.3 mg/kg oral 5 min before colchicine 3.0 mg/kg oral
[4] = Group4, rats, Schisandrin A 12.6 mg/kg oral 5 min before colchicine 3.0 mg/kg oral
[5] = Group5, rats, Schisandrin A 25.2 mg/kg oral 5 min before colchicine 3.0 mg/kg oral
[6] = Group6, rats, Schisandrin A 50.4 mg/kg oral 5 min before colchicine 3.0 mg/kg oral
[7] = Group7, rats, Schisandrin A 63.0 mg/kg oral 5 min before colchicine 3.0 mg/kg oral

With `COc1cc2c(c(OC)c1OC)-c1ccc(OC)c(=O)cc1[C@@H](NC(C)=O)CC2` [colchicine] the Cmax [1] was 13.4 ± 4.38 ng/mL, the Tmax [1] was 10.2 ± 5.4 min and the AUC(0-t) [1] was 48.9 ± 14.9 ng·h/mL. The AUC(0-inf) [1] was 57.5 ± 16.1 ng·h/mL, the MRT last [1] was 4.54 ± 1.33 h and the MRT inf [1] was 6.99 ± 1.99 h. The half-life [1] was 312 ± 139 min, the Cmax [2] was 10.2 ± 2.63 ng/mL and the Tmax [2] was 13.2 ± 4.2 min. For the same molecule, the AUC(0-t) [2] was 32.9 ± 20.9 ng·h/mL, the AUC(0-inf) [2] was 40.6 ± 22.2 ng·h/mL and the MRT last [2] was 3.89 ± 1.74 h. The MRT inf [2] was 6.86 ± 2.77 h, the half-life [2] was 280 ± 122 min and the Cmax [3] was 24.4 ± 6.12 ng/mL. It also gave a Tmax [3] of 11.4 ± 5.4 min, an AUC(0-t) [3] of 74.4 ± 27 ng·h/mL and an AUC(0-inf) [3] of 84.5 ± 30.5 ng·h/mL. It also gave an MRT last [3] of 5.04 ± 1.86 h, an MRT inf [3] of 7.67 ± 3.34 h and a half-life [3] of 367 ± 172 min. The Cmax [4] was 25.7 ± 9.67 ng/mL, the Tmax [4] was 11.4 ± 5.4 min and the AUC(0-t) [4] was 71 ± 33.3 ng·h/mL. It also gave an AUC(0-inf) [4] of 79.7 ± 34.9 ng·h/mL, an MRT last [4] of 3.95 ± 1.2 h and an MRT inf [4] of 6.54 ± 3.18 h. The half-life [4] was 394 ± 282 min, the Cmax [5] was 29.3 ± 11.9 ng/mL and the Tmax [5] was 6.6 ± 4.2 min. For the same molecule, the AUC(0-t) [5] was 75.5 ± 27.6 ng·h/mL, the AUC(0-inf) [5] was 86.8 ± 36.2 ng·h/mL and the MRT last [5] was 4.04 ± 1.44 h. It also gave an MRT inf [5] of 7.29 ± 4.72 h, a half-life [5] of 452 ± 389 min and a Cmax [6] of 48.2 ± 12.4 ng/mL. It also gave a Tmax [6] of 18.6 ± 9.6 min, an AUC(0-t) [6] of 151 ± 41.4 ng·h/mL and an AUC(0-inf) [6] of 186 ± 70.5 ng·h/mL. For the same molecule, the MRT last [6] was 5.1 ± 0.77 h, the MRT inf [6] was 11.7 ± 6.87 h and the half-life [6] was 783 ± 377 min. It also gave a Cmax [7] of 33.8 ± 14 ng/mL, a Tmax [7] of 15.6 ± 7.8 min and an AUC(0-t) [7] of 84.8 ± 39.3 ng·h/mL. It also gave an AUC(0-inf) [7] of 98.7 ± 41.9 ng·h/mL, an MRT last [7] of 4.09 ± 1.76 h and an MRT inf [7] of 7.52 ± 3.62 h. For the same molecule, the half-life [7] was 455 ± 219 min.
